Tests used:
[1] = human therapeutic maximal blood concentration, ref product labeling, cited from earlier work
[2] = ref product labeling, cited from earlier work
[3] = test system: isolated rat liver mitochondria; experiment: Mitochondrial swelling (absorbance at 535 nm); assay type: biochemical; conditions: difference in signal between KI and DMSO treated samples at the end of experiments; on Swelling 5XCmax: key: 0 indicates that the drug had no effects (negative)
[4] = test system: isolated rat liver mitochondria; experiment: Mitochondrial inner membrane potential (MMP), Rhodamine 123; assay type: biochemical; conditions: difference in signal between KI and DMSO treated samples at the end of experiments
Text: Fig. 3 KI effects on mitochondrial inner membrane potential (MMP). […] In a, c, data are means and standard derivations from three separate experiments. *p < 0.05 as compared to DMSO-treated samples at the end of experiments. In b, data are means of two independent experiments

[5] = target: T1, RCC II (Rattus norvegicus, UniProt P21913+Q641Z9+Q6PCT8+Q920L2); experiment: RCC II activity in submitochondrial particles; assay type: biochemical; set-up: key: activity relative to DMSO-treated controls (control set as 1 = 100%); conditions: DMSO treated samples set as 1
T1 construct: Submitochondrial particles were prepared by subjecting the intact mitochondria to three successive freeze–thaw cycles; from tissue; host or cells: rat liver mitochondria, used as submitochondrial particles
Summary of the method: (§1)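 Abs 340 nm (I/V) or 600 nm (II), 1-min reads × 6 min; 550 nm (III, IV), 10-s reads × 2 min. RCC I = rotenone-free minus rotenone rate. DMSO control = 1.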

[6] = test system: RCC V; experiment: RCC V activity in submitochondrial particles; assay type: biochemical, rat; conditions: DMSO treated samples set as 1; on RCC V at 5XCmax: key: 0 indicates that the drug had no effects (negative)
Summary of the method: as §1

[7] = test system: RCC III; experiment: RCC III activity in submitochondrial particles; assay type: biochemical, rat; set-up: key to RCC III at 100XCmax: activity relative to DMSO-treated controls (control set as 1 = 100%); conditions: 100XCmax
Summary of the method: as §1

[8] = test system: RCC I; experiment: RCC I activity in submitochondrial particles; assay type: biochemical, rat; set-up: key to RCC I at 10XCmax / RCC I at 100XCmax / RCC I at 50XCmax / RCC I at 30XCmax / RCC I at 20XCmax: activity relative to DMSO-treated controls (control set as 1 = 100%); conditions: 10XCmax; DMSO treated samples set as 1
Summary of the method: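 First, submitochondrial particles (1 mg/ml) are incubated with inhibitor for 15 min. Next, complex activities are followed spectrophotometrically, with RCC I taken as the difference between buffers lacking and containing rotenone. Finally, activities are expressed relative to DMSO controls set at 1.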

[9] = test system: RCC IV; experiment: RCC IV activity in submitochondrial particles; assay type: biochemical, rat; set-up: key to RCC IV at 50XCmax / RCC IV at 100XCmax: activity relative to DMSO-treated controls (control set as 1 = 100%); conditions: 50XCmax; DMSO treated samples set as 1; in %
Summary of the method: as §1

[10] = test system: isolated rat liver mitochondria; experiment: Mitochondrial oxygen consumption (glutamate/malate or succinate driven, state 4 and state 3); assay type: biochemical; conditions: DMSO treated samples set as 1; on State 3 respiration driven by succinate at 10XCmax: key: 0 indicates that the drug had no effects (negative); on State 3 respiration driven by succinate at 1XCmax: key: 0 indicates that the drug had no effects (negative)
Summary of the method: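 Oxygen uptake on glutamate/malate or on succinate defined state 4; ADP added 3 min later gave state 3. Mitochondria isolated from rat liver by differential centrifugation, adjusted to 1 mg/ml and pretreated 5 min with inhibitor (0.1% DMSO final). Values relative to DMSO control, set to 1.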

T1 sequence (Q920L2 35-656): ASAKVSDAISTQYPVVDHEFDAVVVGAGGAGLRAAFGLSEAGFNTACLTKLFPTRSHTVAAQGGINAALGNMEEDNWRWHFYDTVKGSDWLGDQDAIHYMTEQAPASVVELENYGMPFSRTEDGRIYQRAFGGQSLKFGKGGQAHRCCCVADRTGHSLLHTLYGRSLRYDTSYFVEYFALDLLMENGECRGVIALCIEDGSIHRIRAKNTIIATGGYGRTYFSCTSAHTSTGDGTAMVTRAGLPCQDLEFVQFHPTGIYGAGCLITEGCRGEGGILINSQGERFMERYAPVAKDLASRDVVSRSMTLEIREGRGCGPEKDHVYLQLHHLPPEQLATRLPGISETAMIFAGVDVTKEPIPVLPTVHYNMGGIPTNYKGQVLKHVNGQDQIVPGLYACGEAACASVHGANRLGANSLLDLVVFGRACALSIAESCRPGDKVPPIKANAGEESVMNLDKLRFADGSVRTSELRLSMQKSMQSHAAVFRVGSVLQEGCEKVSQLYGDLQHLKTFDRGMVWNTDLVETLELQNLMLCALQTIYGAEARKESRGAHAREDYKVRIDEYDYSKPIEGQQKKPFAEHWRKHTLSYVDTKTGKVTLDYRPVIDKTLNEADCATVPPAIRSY
T1 sequence (P21913 31-282): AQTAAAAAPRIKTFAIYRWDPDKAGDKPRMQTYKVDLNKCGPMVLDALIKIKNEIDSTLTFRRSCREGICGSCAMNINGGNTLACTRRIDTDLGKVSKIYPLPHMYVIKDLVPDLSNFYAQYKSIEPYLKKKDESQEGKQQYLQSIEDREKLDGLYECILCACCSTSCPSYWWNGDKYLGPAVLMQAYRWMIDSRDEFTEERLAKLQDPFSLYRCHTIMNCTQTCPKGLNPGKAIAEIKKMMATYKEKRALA
T1 sequence (Q641Z9 1-169): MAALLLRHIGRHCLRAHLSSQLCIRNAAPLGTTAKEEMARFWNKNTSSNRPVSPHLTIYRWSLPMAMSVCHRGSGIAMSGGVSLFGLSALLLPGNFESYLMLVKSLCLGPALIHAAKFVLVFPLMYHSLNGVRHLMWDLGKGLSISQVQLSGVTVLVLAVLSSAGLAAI
T1 sequence (Q6PCT8 57-159): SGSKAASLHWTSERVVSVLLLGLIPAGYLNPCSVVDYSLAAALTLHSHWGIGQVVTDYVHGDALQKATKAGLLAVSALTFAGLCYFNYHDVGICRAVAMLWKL

CN(C)C/C=C/C(=O)Nc1cc2c(Nc3ccc(F)c(Cl)c3)ncnc2cc1O[C@H]1CCOC1 [afatinib dimaleate]
1: DILI potential (based on labeling) ([2]; 1 DILI positive, 0 negative according to labeling)
0: Swelling 1XCmax ([3]; 1XCmax) | Swelling 2.5XCmax ([3]; 2.5XCmax) | Swelling 5XCmax ([3]; 5XCmax) | Swelling 10XCmax ([3]; 10XCmax) | Swelling 20XCmax ([3]; 20XCmax) | Swelling 30XCmax ([3]; 30XCmax) | Swelling 50XCmax ([3]; 50XCmax) | Swelling 100XCmax ([3]; 100XCmax) | MMP measured by Rhodamine 123 at 1XCmax ([4]; 1XCmax) | MMP measured by Rhodamine 123 at 2.5XCmax ([4]; 2.5XCmax) | MMP measured by Rhodamine 123 at 5XCmax ([4]; 5XCmax) | MMP measured by Rhodamine 123 at 10XCmax ([4]; 10XCmax) | MMP measured by Rhodamine 123 at 20XCmax ([4]; 20XCmax) | MMP measured by Rhodamine 123 at 30XCmax ([4]; 30XCmax) | MMP measured by Rhodamine 123 at 50XCmax ([4]; 50XCmax) | MMP measured by Rhodamine 123 at 100XCmax ([4]; 100XCmax) | RCC II at 1.0XCmax ([5]; 1.0XCmax) | RCC II at 2.5XCmax ([5]; 2.5XCmax) | RCC II at 5XCmax ([5]; 5XCmax) | RCC II at 10XCmax ([5]; 10XCmax) | RCC II at 20XCmax ([5]; 20XCmax) | RCC II at 30XCmax ([5]; 30XCmax) | RCC II at 50XCmax ([5]; 50XCmax) | RCC II at 100XCmax ([5]; 100XCmax) | RCC V at 5XCmax ([6]; 5XCmax) | RCC V at 50XCmax ([6]; 50XCmax) | RCC III at 100XCmax [7] | RCC I at 10XCmax [8] | RCC IV at 50XCmax [9] | State 3 respiration driven by glutamate/malate at 1XCmax ([10]; 1XCmax) | State 3 respiration driven by succinate at 1XCmax ([10]; 1XCmax) | State 4 respiration driven by glutamate/malate at 1XCmax ([10]; 1XCmax) | State 4 respiration driven by succinate at 1XCmax ([10]; 1XCmax) | State 3 respiration driven by glutamate/malate at 2.5XCmax ([10]; 2.5XCmax) | State 3 respiration driven by succinate at 2.5XCmax ([10]; 2.5XCmax) | State 4 respiration driven by glutamate/malate at 2.5XCmax ([10]; 2.5XCmax) | State 4 respiration driven by succinate at 2.5XCmax ([10]; 2.5XCmax) | State 3 respiration driven by glutamate/malate at 5XCmax ([10]; 5XCmax) | State 3 respiration driven by succinate at 5XCmax ([10]; 5XCmax) | State 4 respiration driven by glutamate/malate at 5XCmax ([10]; 5XCmax) | State 4 respiration driven by succinate at 5XCmax ([10]; 5XCmax) | State 3 respiration driven by glutamate/malate at 10XCmax ([10]; 10XCmax) | State 3 respiration driven by succinate at 10XCmax ([10]; 10XCmax) | State 4 respiration driven by glutamate/malate at 10XCmax ([10]; 10XCmax) | State 4 respiration driven by succinate at 10XCmax ([10]; 10XCmax) | State 3 respiration driven by glutamate/malate at 20XCmax ([10]; 20XCmax) | State 3 respiration driven by succinate at 20XCmax ([10]; 20XCmax) | State 4 respiration driven by glutamate/malate at 20XCmax ([10]; 20XCmax) | State 4 respiration driven by succinate at 20XCmax ([10]; 20XCmax) | State 3 respiration driven by glutamate/malate at 30XCmax ([10]; 30XCmax) | State 3 respiration driven by succinate at 30XCmax ([10]; 30XCmax) | State 4 respiration driven by glutamate/malate at 30XCmax ([10]; 30XCmax) | State 4 respiration driven by succinate at 30XCmax ([10]; 30XCmax) | State 3 respiration driven by glutamate/malate at 50XCmax ([10]; 50XCmax) | State 3 respiration driven by succinate at 50XCmax ([10]; 50XCmax) | State 4 respiration driven by glutamate/malate at 50XCmax ([10]; 50XCmax) | State 4 respiration driven by succinate at 50XCmax ([10]; 50XCmax) | State 3 respiration driven by glutamate/malate at 100XCmax ([10]; 100XCmax) | State 3 respiration driven by succinate at 100XCmax ([10]; 100XCmax) | State 4 respiration driven by glutamate/malate at 100XCmax ([10]; 100XCmax) | State 4 respiration driven by succinate at 100XCmax ([10]; 100XCmax)
W&P: ALT↑: Labeling for DILI ([2]; BBW: black box warning, W&P: Warnings and Precautions)
0.04 µM: Cmax ([1]; read-out: Cmax at µM)
0.0252 µg/mL: Cmax (ng or µg/ml) [1]

— paper PMC5515969, “Effects of 31 FDA approved small-molecule kinase inhibitors on isolated rat liver mitochondria” (Archives of Toxicology, 2016)
